Assays:
[1] = Pharmacokinetics in C57BL/6 mice; format: in vivo; settings: male, C57BL/6, mouse, plasma; for Tmax: n = 3
Method: Male C57BL/6 mice were divided into two groups: 8-074 single intravenous injection group (2 mg/kg, n = 3) and 8-074 single gavage group (5 mg/kg, n = 3). After administration, blood samples were collected at 0.25, 0.5, 1, 2, 5, 7, and 24 h. Then the plasma samples were separated and stored at − 80 °C until the analysis. After being thawed at room temperature, 10 μL of plasma samples were added with 150 μL of precipitant containing the internal standard (verapamil 40 ng/mL) for the protein precipitation. The supernatant was mixed with a suitable volume of water and then analyzed using liquid chromatography in tandem with mass spectrometry (LC-MS/MS). The concentration of 8–074 in the plasma of the C57 mice after administration was determined using the inter-run standard curve samples (linear range of 3–10,000 ng/mL) and quality control samples.

[2] = system: LLC tumors; assay: LLC syngeneic tumor model; format: in vivo, C57BL/6 mice
Method: All experiments were approved by the IACUC and performed with strict adherence to a series of documents and standards of procedures (SOPs) relative to animal ethics and welfare. The mice were housed in cages with controlled temperature (25 ± 2 °C) and humidity (65 ± 5%) under a 12 h light/dark cycle. After a one-week adaptation period, six to eight-week-old female mice were injected s.c. with LLC (5 × 10^5), B16F10 (2 × 10^5), or MC38 (2 × 10^6) cells into the lower right flank. Approximately seven days after the subcutaneous injection of tumor cells, the mice were randomly divided into four groups. RORγt agonist 8-074, LYC-55716 (BioChemPartner, Shanghai, China) and anti-PD-1 (BioXCell, New Hampshire, USA) treatment commenced when the average tumor size reached 50 mm^3 for LLC and B16F10 and 150 mm^3 for MC38. The 5 × 10^5 LLC cells were transplanted subcutaneously into the right flank of the C57BL/6 mice seven days after being transplanted, and the mice were randomly divided into four groups. Anti-PD-1 was administrated one day after the RORγt agonist was treated (Clone: PMP1-14; 200 μg via intraperitoneal injection on day 1, 4, 7, 10, 13 after treatment with 8-074). For the CD8^+ T cell depletion, mice were injected intraperitoneally (i.p.) with 400 μg of anti-CD8α (YTS 169.4; BioXCell, New Hampshire, USA) one day before and dosed per week after the anti-PD-1 treatment. Mice with established tumors were treated using intraperitoneal injection of 8-074 (indicated dose), LYC-55716 (50 mg/kg) or DMSO (SIGMA, New Jersey, USA) every day. […] The tumor volume based on the caliper measurements was calculated using the modified ellipsoidal equation, where the tumor volume = 1/2 (length × width ^2) and the length was the longer dimension. […] TGI was calculated using the equation: [(Ct – C0) – (Tt – T0)] / (Ct – C0) × 100, where Ct = the mean tumor volume of the control group at the time (t); C0 = the mean tumor volume of the control group at t0; Tt = mean tumor volume of the treatment group at t; and T0 = mean tumor volume of the treatment group at t0.

SMILES: CCS(=O)(=O)c1ccc(CC(=O)Nc2ccc(-c3ccc(CC(C)C)c(C#N)c3)c(C(F)(F)F)c2)cc1 [8-074]
- MRT inf ([1]; iv, 2 mg/kg, i.v. 2 mg/kg, first MRTINF line (r8)): 3.84 ± 0.33 h
- MRT inf ([1]; iv, 2 mg/kg, i.v. 2 mg/kg, second MRTINF line (r9)): 2.97 ± 0.25 h
- AUC(0-inf) ([1]; iv, i.v. 2 mg/kg): 20600 ng·h/mL
- AUC(0-t) ([1]; iv, i.v. 2 mg/kg): 20500 ng·h/mL
- Cmax ([1]; iv, i.v. 2 mg/kg): 4800 ± 1200 ng/mL
- clearance ([1]; iv, i.v. 2 mg/kg): 1.63 ± 0.11 mL/min/kg
- Tmax ([1]; iv, i.v. 2 mg/kg): 15 min
- bioavailability ([1]; oral, i.g. 5 mg/kg vs i.v. 2 mg/kg): 38%
- MRT inf ([1]; po, 5 mg/kg, i.g. 5 mg/kg, first MRTINF line (r8)): 4.49 ± 1.2 h
- MRT inf ([1]; po, 5 mg/kg, i.g. 5 mg/kg, second MRTINF line (r9)): 3.34 ± 0.52 h
- AUC(0-inf) ([1]; po, i.g. 5 mg/kg): 19800 ng·h/mL
- AUC(0-t) ([1]; po, i.g. 5 mg/kg): 19700 ng·h/mL
- Cmax ([1]; po, i.g. 5 mg/kg): 3020 ± 110 ng/mL
- Tmax ([1]; po, i.g. 5 mg/kg): 100 ± 34.8 min
- half-life ([1]; po, single intragastric administration of 5 mg/kg): 200 ± 31.2 min
- AUC ([1]; route not given): 20600 ± 1500 ng·h/mL
- TGI ([2]; LLC combination study Fig. 3e, anti-PD-1 10 mg/kg every three days i.p., 8-074 i.p. every day): 59.3%
- body weight of mice ([2]; LLC model, dose escalation): slight body weight loss
- Tumor growth inhibition (TGI) ([2]; LLC, 50 mg/kg i.p. QD over two weeks, Fig. 3a): 55.6%
